Measurements as given in patent US20230398095A1, “THERAPEUTIC AGENT FOR TREATMENT OF AGE-RELATED MACULAR DEGENERATION” (priority 2022, published 2023).

Tested on: Human Tenon's capsule fibroblasts (HTCF)
Assay: Oxidative stressor dosage curve, cell metabolic activity (MTT) of HTCF
Assay type: cell-based
Conditions: one-hour incubation, dose-dependent, n=4
Protocol: The following preferred method was utilized in conducting the experiment: • 1) Culture cells (90% confluence) • 2) Load 5×10^4 cells/well in 24-well plates • 3) Change to serum-free medium overnight • 4) Treat cells • 5) Measure cell metabolic activity (MTT) or % cytotoxicity (LDH) • 6) Normalize results • 7) Replicate experiment with cell lines from different patients • 8) Conduct statistical analysis
1. Treat cells with serum free medium and tert-butyl hydroperoxide (t-BOOH) at 0 mM (VC), […], 0.1 mM, 0.5 mM, 1 mM and 2 mM for 30 min, 1 h, 2 h, 3 h
2. Measure cell metabolic activity with 3-(4,5-dimethylthiazol-2-yl)-2,5-diphenyltetrazolium bromide (MTT) assay
FIGS. 5A-5D show the cell metabolic activity of HTCF cells in response to treatment with tert-butyl hydroperoxide (t-BOOH).
Dose-dependent effect of a one-hour incubation.

CC(C)(C)OO [tert-butyl hydroperoxide (t-BOOH), Tert-butyl hydroperoxide]
cell metabolic activity versus control sample: significant effect versus the control sample
